Experiment [1] concerns the target T1, ATX (Homo sapiens, UniProt Q13822). In words: Amplex Red Lyso-phospholipase D assay, human ATX. Particulars: for IC50: Table S2, Sino hATX 2nM; for inhibition at 30 µM: read-out: %inhibition at 30uM. On the set-up: purchased Sino Biological. It counts as biochemical. As for the experimental part:
All compounds proposed were assessed for their ATX inhibitory activity in vitro using the Amplex Red assay. The Amplex Red Lyso-phospholipase D assay is a fluorometry-based assay providing a sensitive method for measuring Lyso-phospholipase D (ATX) activity in vitro. In this enzyme-coupled assay, ATX activity is monitored indirectly using 10-acetyl-3,7-dihydrophenoxazine (Amplex Red reagent), a sensitive fluorogenic probe for H2O2. ATX initially cleaves the Lysophosphatidylcholine (LPC) substrate to yield choline and Lysophosphatidic acid (LPA), while choline gets subsequently oxidized by choline oxidase to betaine and H2O2. Lastly, H2O2, in the presence of horseradish peroxidase (HRP), reacts with Amplex Red reagent in a 1:1 stoichiometry to generate the highly fluorescent product resorufin.
The inhibition assay was performed as previously described with some modifications in order to accommodate the newly-discovered lag phase in ATX kinetics. To this end, and in order to provide adequate time to the hydrolysis of LPC by ATX, we added a 30min incubation period between ATX, inhibitors and LPC. Briefly, 2 μL of different concentrations of inhibitors diluted in DMSO (Sigma-Aldrich, St. Louis, MO, USA) were incubated with 50 µL of ATX 8 nM (human or mouse ATX from Sino Biological), and 48 µL reaction buffer (50 mM Tris-Cl pH 8.0 from Thermo Fisher Scientific, Waltham, MA, USA and 5 mM CaCl2 from Honeywell-Fluka, Charlotte, NC, USA) in a black 96-well microplate for 15 min at 37 °C. Thence, another 50 µL of reaction buffer with 200 μM LPC substrate 16:0 (Avanti Polar Lipids Inc, Alabaster, AL, USA) ([…]) was added to the reaction mixture and incubated for 30 min at 37 °C in order for ATX to convert LPC to LPA and choline. Finally, 50 µL of working solution containing 200 μM Amplex Red (Invitrogen, Carlsbad, CA, USA), 4 U/mL HRP (Sigma-Aldrich, St. Louis, MO, USA), 0.4 U/mL choline oxidase (Sigma-Aldrich, St. Louis, MO, USA) in 50 mM Tris-HCl pH 8.0 and 5 mM CaCl2 was added to measure the produced choline. The reaction was monitored at 37 °C in a fluorescence plate reader using excitation at 530 nm and reading at 590 nm, every 5 min for 30 min. The velocity of the reaction and the remaining activity of ATX were calculated at the linear phase of the reaction and dose-response inhibition graphs were plotted with GraphPad Software (GraphPad Software, San Diego, CA, USA). […] In order to evaluate a possible effect of the compounds on the second (choline oxidase) and third (HRP) enzymes of the Amplex Red assay, we also performed the assay in the absence of ATX but in the presence of the compounds. Instead of ATX, we added choline chloride at a final concentration of 2 µM so as the second and third steps of the assay could proceed normally.

The target in experiment [2] is T1, ATX. In words: IC50 Eleanna (Table S2, method not described). Particulars: Table S2; read-out: IC50 Eleanna. It counts as biochemical.
Setting [3] is: read-out: in vitro IC50 (Sino hATX 2nM).

Where only a bound is given, the exact number is not on record here.

Here are results for 25 compounds from article PMC7582705, “Structure-Based Discovery of Novel Chemical Classes of Autotaxin Inhibitors” (International Journal of Molecular Sciences, 2020).

A word on the IC50: it is the concentration at which inhibition is half-maximal. On to `COCCCN1C(=O)c2[nH]nc(-c3ccccc3)c2C1c1ccc(C(C)C)cc1` (stereo not shown) [KM-2, 5-(3-methoxypropyl)-3-phenyl-4-(4-propan-2-ylphenyl)-1,4-dihydropyrrolo[3,4-c]pyrazol-6-one], for which the IC50 was more than 30 µM at ATX [1] (in vitro IC50 (Sino hATX 2nM)) and more than 5 µM on ATX [2].

Take `CCc1ccccc1NC(=O)C1c2ccccc2C(=O)N(CCOC)C1c1cccs1` (stereo not shown) [KM-4, N-(2-ethylphenyl)-2-(2-methoxyethyl)-1-oxo-3-thiophen-2-yl-3,4-dihydroisoquinoline-4-carboxamide]: the half-inhibitory concentration (IC50) was more than 30 µM on ATX [1] (in vitro IC50 (Sino hATX 2nM)) and more than 5 µM at ATX [2].

As a reminder, the inhibition is the relative decrease from the control value, in per cent. As to `CCOC(=O)c1c(CN2CCCCC2)n(-c2ccccc2)c2cc(Br)c(OC)cc12` [KM-6, ethyl 6-bromo-5-methoxy-1-phenyl-2-(piperidin-1-ylmethyl)indole-3-carboxylate], at ATX [1] (Table S2, at 30uM), the inhibition at 30 µM stood at 20.6%. Moreover, the results for the IC50 on ATX [1] (in vitro IC50 (Sino hATX 2nM)) and on ATX [2] were more than 30 µM and 4.5 µM, respectively.

Take `COc1ccccc1C(=O)NCc1nc2ccccc2n1Cc1cc(C)ccc1C` [KM-9, N-[[1-[(2,5-dimethylphenyl)methyl]benzimidazol-2-yl]methyl]-2-methoxybenzamide,]: at ATX [1] (Table S2, at 30uM), the inhibition at 30 µM is 17.1%. In addition, the figures for the IC50 against ATX [1] (in vitro IC50 (Sino hATX 2nM)) and on ATX [2] were more than 30 µM and 5 µM, respectively.

For the compound `Cc1ccc(C)c(NC(=O)CSc2cn(CC(=O)N3CCCC3)c3ccccc23)c1` [KM-21, N-(2,5-dimethylphenyl)-2-[1-(2-oxo-2-pyrrolidin-1-ylethyl)indol-3-yl]sulfanylacetamide], the half-maximal inhibitory concentration (IC50) at ATX [1] (in vitro IC50 (Sino hATX 2nM)) was more than 30 µM; on ATX [2], more than 5 µM.

For `COc1cc([C@H]2c3cccn3CCN2C(=S)Nc2ccccc2C)cc(OC)c1OC` [KM-27, N-(o-tolyl)-1-(3,4,5-trimethoxyphenyl)-3,4-dihydro, (1S)-N-(2-methylphenyl)-1-(3,4,5-trimethoxyphenyl)-3,4-dihydro-1H-pyrrolo[1,2-a]pyrazine-2-carbothioamide], the IC50 at ATX [1] (setting [3]) is more than 30 µM; at ATX [2], 1 µM.

In the case of `COc1ccc(Cn2c(C(=O)O)c(CNC3CCCCC3)c3ccc(C)cc32)cc1` [KM-29, 3-[(cyclohexylamino)methyl]-1-[(4-methoxyphenyl)methyl]-6-methylindole-2-carboxylic acid], the inhibition at 30 µM on ATX [1] (Table S2, at 30uM) was found to be 3.21%. Further, the IC50 against ATX [1] (in vitro IC50 (Sino hATX 2nM)) is more than 30 µM; at ATX [2], 1.2 µM.

As for `CCOC(=O)Cc1c(CN2CCN(C)CC2)c2ccccc2n1Cc1ccccc1` [KM-30, ethyl 2-[1-benzyl-3-[(4-methylpiperazin-1-yl)methyl]indol-2-yl]acetate], the inhibition at 30 µM on ATX [1] (Table S2, at 30uM) stood at 0%. Moreover, the IC50 was more than 30 µM against ATX [1] (in vitro IC50 (Sino hATX 2nM)) and 5 µM on ATX [2].

On to `COc1ccc(NC(=S)N2CCn3cccc3C2c2ccc(OC)c(OC)c2)cc1` (stereo not shown) [KM-31, 1-(3,4-dimethoxyphenyl)-N-(4-methoxyphenyl)-3,4-dihydro-1H-pyrrolo[1,2-a]pyrazine-2-carbothioamide], for which the concentration for half-maximal inhibition (IC50) at ATX [1] (in vitro IC50 (Sino hATX 2nM)) was more than 30 µM; at ATX [2], 4.5 µM.

With `CCc1ccc([C@H](NC(=O)CCN2C(=O)[C@@H](C)Oc3ccccc32)c2cccs2)cc1` [KM-36, N-[(S)-(4-ethylphenyl)-thiophen-2-ylmethyl]-3-[(2R)-2-methyl-3-oxo-1,4-benzoxazin-4-yl]propanamide], the inhibition at 30 µM at ATX [1] (Table S2, at 30uM) was 9.71%. The IC50 on ATX [1] (in vitro IC50 (Sino hATX 2nM)) is more than 30 µM; on ATX [2], 5 µM.

Consider `CCOC(=O)c1c(-c2ccccc2)oc2ccc(O)c(CN3CCC(C)CC3)c12` [KM-39, 3-ethoxycarbonyl-4-[(4-methylpiperidin-1-ium-1-yl)methyl]-2-phenyl-1-benzofuran-5-olate], for which the figures for the IC50 at ATX [1] (in vitro IC50 (Sino hATX 2nM)) and at ATX [2] were more than 30 µM and 5 µM, respectively.

Broadly, the %inhibition is the share of the control response that was lost under treatment. Take `CCOC(=O)c1c(-c2ccccc2)oc2ccc(O)c(CN3CCC(C)CC3)c12.Cl` [KM-40, ethyl 5-hydroxy-4-[(4-methylpiperidin-1-yl)methyl]-2-phenyl-1-benzofuran-3-carboxylate;hydrochloride]: on ATX [1] (Table S2, at 30uM), the “%inhibition at 30uM” value is listed as 41.295%. Also, the half-maximal inhibitory concentration (IC50) at ATX [1] (setting [3]) was more than 30 µM.

Turning to `CC1Cc2nc(SCC(=O)NCc3ccc(F)cc3)n(Cc3ccccc3)c(=O)c2S1` (stereo not shown) [KM-45, 2-[(3-benzyl-6-methyl-4-oxo-6,7-dihydrothieno[3,2-d]pyrimidin-2-yl)sulfanyl]-N-[(4-fluorophenyl)methyl]acetamide], the inhibition at 30 µM on ATX [1] (Table S2, at 30uM) was 35.3%. The half-inhibitory concentration (IC50) on ATX [1] (in vitro IC50 (Sino hATX 2nM)) was more than 30 µM; on ATX [2] it was 1.3 µM.

In the case of `COc1ccc2c(CNC3CCC(C)CC3)c(C(=O)O)n(Cc3ccccc3)c2c1` (stereo not shown) [KM-47, 1-benzyl-6-methoxy-3-[[(4-methylcyclohexyl)amino]methyl]indole-2-carboxylic acid], the 50% inhibitory concentration (IC50) against ATX [1] (in vitro IC50 (Sino hATX 2nM)) is more than 30 µM; on ATX [2] it was more than 5 µM.

Take `CCOC(=O)c1c(-c2ccccc2)oc2ccc(O)c(CN3CCCCC3C)c12` (stereo not shown) [KM-48, 2,3-dihydroxybutanedioic acid;ethyl 5-hydroxy-4-[(2-methylpiperidin-1-yl)methyl]-2-phenyl-1-benzofuran-3-carboxylate]: the concentration for half-maximal inhibition (IC50) on ATX [1] (setting [3]) is more than 30 µM; on ATX [2] it was more than 5 µM.

Consider `CCOC(=O)c1c(C)c(-c2ccccc2)n(CC(=O)N2CCc3ccccc3C2)c1C` [KM-49, ethyl 1-[2-(3,4-dihydro-1H-isoquinolin-2-yl)-2-oxoethyl]-2,4-dimethyl-5-phenylpyrrole-3-carboxylate], for which the IC50 on ATX [1] (in vitro IC50 (Sino hATX 2nM)) is more than 30 µM; on ATX [2], 5 µM.

In the case of `Cc1cc(C)cc(NC(=O)CSc2cn(CC(=O)N3CCCC3)c3ccccc23)c1` [KM-50, N-(3,5-dimethylphenyl)-2-[1-(2-oxo-2-pyrrolidin-1-ylethyl)indol-3-yl]sulfanylacetamide], the IC50 at ATX [1] (in vitro IC50 (Sino hATX 2nM)) was more than 30 µM; at ATX [2], 5 µM.

With `Cc1ccccc1-n1nc2c(c1NC(=O)c1cccc3ccccc13)C[S+]([O-])C2` (stereo not shown) [SC-3, N-[2-(2-methylphenyl)-5-oxo-4,6-dihydrothieno[3,4-c]pyrazol-3-yl]naphthalene-1-carboxamide], the inhibition at 30 µM at ATX [1] (Table S2, at 30uM) turned out to be 4.2%. Also, the IC50 was more than 30 µM against ATX [1] (in vitro IC50 (Sino hATX 2nM)) and 0.6 µM at ATX [2].

For the compound `O=S(=O)(c1ccc(F)cc1)N1C=Cc2ccccc2C1c1c[nH]c2ccccc12` (stereo not shown) [SC-4, 2-(4-fluorophenyl)sulfonyl-1-(1H-indol-3-yl)-1H-isoquinoline], the half-inhibitory concentration (IC50) against ATX [1] (in vitro IC50 (Sino hATX 2nM)) is more than 30 µM; on ATX [2], more than 5 µM.

Turning to `O=C(Cc1cccc2ccccc12)Nc1c2c(nn1-c1ccccc1)CS(=O)(=O)C2` [SC-5, N-(5,5-dioxo-2-phenyl-4,6-dihydrothieno[3,4-c]pyrazol-3-yl)-2-naphthalen-1-ylacetamide], the inhibition at 30 µM on ATX [1] (Table S2, at 30uM) came to 43%. Moreover, the IC50 against ATX [1] (in vitro IC50 (Sino hATX 2nM)) stood at 30 µM; on ATX [2] it was 2.2 µM.

In the case of `O=C(Nc1c2c(nn1-c1ccccc1)CS(=O)(=O)C2)c1cccc2ccccc12` [SC-6, N-(5,5-dioxo-2-phenyl-4,6-dihydrothieno[3,4-c]pyrazol-3-yl)naphthalene-1-carboxamide], the 50% inhibitory concentration (IC50) is more than 30 µM on ATX [1] (in vitro IC50 (Sino hATX 2nM)) and more than 5 µM on ATX [2].

For `O=C(Cc1cccc2ccccc12)Nc1c2c(nn1-c1ccccc1)C[S+]([O-])C2` (stereo not shown) [SC-7, 2-naphthalen-1-yl-N-(5-oxo-2-phenyl-4,6-dihydrothieno[3,4-c]pyrazol-3-yl)acetamide], the half-maximal inhibitory concentration (IC50) on ATX [1] (in vitro IC50 (Sino hATX 2nM)) was more than 30 µM; at ATX [2], more than 5 µM.

Consider `COc1ccc(C2SCCN2S(=O)(=O)c2ccc3c(c2)Cc2ccccc2-3)cc1` (stereo not shown) [SC-8, 3-(9H-fluoren-2-ylsulfonyl)-2-(4-methoxyphenyl)-1,3-thiazolidine], for which the half-maximal inhibitory concentration (IC50) against ATX [1] (in vitro IC50 (Sino hATX 2nM)) is more than 30 µM; at ATX [2] it was more than 5 µM.

As to `O=C(Nc1c2c(nn1-c1ccccc1)C[S+]([O-])C2)c1cccc2ccccc12` (stereo not shown) [SC-9, N-(5-oxo-2-phenyl-4,6-dihydrothieno[3,4-c]pyrazol-3-yl)naphthalene-1-carboxamide], the half-inhibitory concentration (IC50) against ATX [1] (in vitro IC50 (Sino hATX 2nM)) is more than 30 µM; on ATX [2], more than 5 µM.

For the compound `Cn1c(-c2ccccc2)c(C(=O)Cn2cnc3ccsc3c2=O)c2ccccc21` [SC-10, 3-[2-(1-methyl-2-phenylindol-3-yl)-2-oxoethyl]thieno[3,2-d]pyrimidin-4-one], the 50% inhibitory concentration (IC50) against ATX [1] (in vitro IC50 (Sino hATX 2nM)) was more than 30 µM; at ATX [2], more than 5 µM.
